Earlier results as cited in US20090176850A1, “Novel 2-Amino-Imidazole-4-One Compounds And Their Use In The Manufacture Of A Medicament To Be Used In The Treatment Of Cognitive Impairment, Alzheimer's Disease, Neurodegeneration And Dementia” (ASTRAZENECA AB, priority 2005, published 2009).
Non-standard residues stand in square brackets, D forms with d. Residues, ends and D or L forms follow the SMILES beside them. *: point of attachment. Sta = CC(C)C[C@H](N)[C@@H](O)CC(=O)O; Isovaleryl = CC(C)CC(=O)*

Target: BACE (Homo sapiens, UniProt P56817)
Details: Vassar et al, 1999

BACE, sequence (P56817 46-501): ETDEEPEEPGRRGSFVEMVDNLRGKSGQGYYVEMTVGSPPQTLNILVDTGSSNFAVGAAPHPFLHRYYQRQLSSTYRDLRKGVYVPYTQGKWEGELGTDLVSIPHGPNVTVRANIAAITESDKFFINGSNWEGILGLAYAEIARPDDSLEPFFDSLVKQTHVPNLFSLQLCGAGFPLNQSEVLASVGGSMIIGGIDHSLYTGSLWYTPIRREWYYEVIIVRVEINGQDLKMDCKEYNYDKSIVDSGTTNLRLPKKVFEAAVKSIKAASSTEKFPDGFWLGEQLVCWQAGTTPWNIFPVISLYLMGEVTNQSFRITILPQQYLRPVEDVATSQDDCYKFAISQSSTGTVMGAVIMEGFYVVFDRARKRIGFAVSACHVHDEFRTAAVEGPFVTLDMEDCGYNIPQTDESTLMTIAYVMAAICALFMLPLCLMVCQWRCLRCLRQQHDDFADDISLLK

CC(C)CC(=O)N[C@H](C(=O)N[C@H](C(=O)N[C@@H](CC(C)C)[C@@H](O)CC(=O)N[C@@H](C)C(=O)N[C@@H](CC(C)C)[C@@H](O)CC(=O)O)C(C)C)C(C)C [pepstatin] (Isovaleryl-VV[Sta]A[Sta]-OH)
inhibition of BACE: inhibited weakly
